# Experimental data reported in article PMC6881533 (Journal of medicinal chemistry, 2019).
# Where a chain is given by its changes, count along the chain named.
# Assays:
# [1] = target: T1, human CYP51 (WT) (Homo sapiens, UniProt Q16850); assay: CYP51 activity assay, inhibition of lanosterol 14α-demethylation; assay type: biochemical; details: WT enzyme, 1 h reaction
# T1 sequence (Q16850 1-509): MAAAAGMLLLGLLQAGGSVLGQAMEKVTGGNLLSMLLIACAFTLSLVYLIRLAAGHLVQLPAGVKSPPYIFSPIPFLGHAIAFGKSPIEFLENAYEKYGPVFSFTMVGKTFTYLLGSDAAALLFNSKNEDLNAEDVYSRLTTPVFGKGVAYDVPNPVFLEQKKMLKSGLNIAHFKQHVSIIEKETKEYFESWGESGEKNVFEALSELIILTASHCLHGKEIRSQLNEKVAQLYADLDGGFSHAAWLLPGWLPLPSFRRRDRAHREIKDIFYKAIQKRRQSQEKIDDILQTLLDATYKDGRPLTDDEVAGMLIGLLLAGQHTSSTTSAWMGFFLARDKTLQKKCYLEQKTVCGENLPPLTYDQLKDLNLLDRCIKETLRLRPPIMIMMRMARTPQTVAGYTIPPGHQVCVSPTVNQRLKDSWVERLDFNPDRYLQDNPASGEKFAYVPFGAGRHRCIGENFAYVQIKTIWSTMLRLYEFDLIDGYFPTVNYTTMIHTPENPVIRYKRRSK
# [2] = target: T2, T318I mutant of human CYP51 (Homo sapiens, UniProt Q16850, T324I); assay: CYP51 inhibitor binding assay, T318I mutant
# T2 sequence (Q16850 1-509 T324I): T1 sequence (Q16850 1-509) with T324I
# [3] = target: T2, T318I mutant of human CYP51; assay: CYP51 activity assay, inhibition of the T318I mutant; assay type: biochemical
# [4] = target: T3, human CYP51 (Homo sapiens, UniProt Q16850); assay: CYP51 inhibitor binding assay
# T3 sequence (Q16850 1-509): T1 sequence (Q16850 1-509)
# [5] = quoted in legend of Figure 1, reference not given; cited from earlier work
smiles,measurement,setting,value
"O=C(N[C@@H](Cn1ccnc1)c1ccc(Cl)cc1Cl)c1ccc(-c2nnc(-c3ccccc3)o2)cc1 [VNI, (R)-N-(1-(2,4-dichlorophenyl)-2-(1 H-imidazol-1-yl)ethyl)-4-(5-phenyl-1,3,4-oxadiazol-2-yl)benzamide]",inhibition of human CYP51 activity (in words),[1],does not inhibit the WT human CYP51 at all
same,Kd,[2],0.4 µM
same,increase of binding affinity for the mutant,[2]; T318I vs WT enzyme,approximately 12 fold
same,IC50,[3],> 25 µM
same,Kd,[4],4.7 µM
CCC(C)n1ncn(-c2ccc(N3CCN(c4ccc(OCC5COC(Cn6cncn6)(c6ccc(Cl)cc6Cl)O5)cc4)CC3)cc2)c1=O (stereo not drawn) [itraconazole],log P,[5],6.8
O=C(N[C@@H](Cn1ccnc1)c1ccc(-c2ccc(F)cc2)cc1F)c1ccc(-c2nnc(-c3ccccc3)o2)cc1 [VFV],Soret band maximum,"[4]; inhibitor-bound human CYP51, red shift from 417 nm",425 nm
C[C@@H](NCCCc1cccc(C(F)(F)F)c1)c1cccc2ccccc12 [cinacalcet],log P,[5],6.5
CC[C@@H]([C@H](C)O)n1ncn(-c2ccc(N3CCN(c4ccc(OC[C@@H]5CO[C@@](Cn6cncn6)(c6ccc(F)cc6F)C5)cc4)CC3)cc2)c1=O [posaconazole],log P,[5],5.5
